# According to patent US20100255004A1, “RECEPTOR TYROSINE KINASE PROFILING” (Dana Farber Cancer Institute, priority 2007, published 2010):
# Counter-ions that a name gives are not always drawn.
# Experiments:
# [1] = system: PI3K signaling (p85α/GAB1 complex, P-AKT, P-S6); experiment: GAB1 immunoprecipitation and immunoblots of P-AKT and P-S6 in U87MG-EGFR* cells; format: cell-based, human; details: U87MG-EGFR* cells (PTEN mutant), 10 μM each inhibitor (FIG. 3C)
# Description: U87MG parental cells or cells constitutively expressing wt EGFR, the activating vIII deletion mutant (EGFR*) or the vIII mutant with an inactivating mutation in its kinase domain (EGFR*-KD) were immunoprecipitated with an antibody to the RTK/PI-3K adaptor protein, GAB1 (left panel), then immunoblots were probed with the indicated antibodies. […] Whole cell extracts (WCE) from the same cells were immunoblotted with the indicated antibodies. […] C. […] Bottom panel: Un-immunoprecipitated whole cell extracts were immunoblotted with the indicated antibodies. […] Error bars indicate SEM, n=4. […] U87MG-EGFR* cells were transfected with empty vector, HRASV12, myristoylated-AKT, or p110α-CAAX, then treated with 10 μM each of erlotinib (E), SU11274 (S), and imatinib (I) in 0.05% serum-containing medium for 72 hours prior to assaying cell viability.
# We also immunoblotted whole cell extracts with antibodies against MAPK and phosphorylated versions of AKT, MAPK, and S6 (FIG. 3C, bottom panel):
# Following 30 min incubation in lysis buffer at 4° C., lysates were cleared by centrifugation at 10 k 10 min 4° C., then protein concentrations were determined by BioRad DC Protein Assay. […] Co-immunoprecipitated proteins were detected with either mouse or rabbit TrueBlot HRP conjugated secondaries (eBioscience). • Antibody arrays.
# [2] = target: T1, MET (Homo sapiens, UniProt P08581); experiment: Immunoblot of P-MET in LN382 and LN18 cells; format: cell-based; design: endogenous in cells; host or cells: LN382 and LN18 glioma cells; details: 1 μM, 24 hours (FIG. 4F)
# Description: A-E. The glioma cell lines LN18 (wt PTEN), SF767 (wt PTEN), LN382 (mut PTEN) and LNZ308 (mut PTEN) were incubated in 0.05% serum-containing medium cells and treated with 10 μM erlotinib (E or T), 10 μM SU11274 (S), and/or 10 μM imatinib (I or G) and immunoblotted as in FIG. 3. […] LN382 and LN18 cells were treated with 1 μM each RTK inhibitor for 24 hours, then immunoblotted with antibodies to P-PDGFRβ and P-MET.
# [3] = system: PDGFR; experiment: p-PDGFR in LNZ308 cells; format: cell-based, human
# Description: We then correlated inhibition of PI3K activity with biological effects of various combinations of RTK inhibitor treatment regimens. […] Second, we are mindful of the limitation of detection sensitivity by current antibody array technology and that a particular RTK may not be represented or be activated at an undetectable but biologically-relevant level. As shown in FIG. 4C-E, combination inhibition of RTKs in LN382 and LNZ308, both PTEN mutant GBM lines, effectively extinguished PI3K activity.
# [4] = target: T1, MET; experiment: RTK antibody array, phosphorylation of MET in U87MG-EGFR* cells; format: cell-based; design: endogenous in cells; details: 10 μM, RTK antibody array (FIG. 3B)
# Description: Error bars indicate SEM, n=4.
# Following 30 min incubation in lysis buffer at 4° C., lysates were cleared by centrifugation at 10 k 10 min 4° C., then protein concentrations were determined by BioRad DC Protein Assay. […] Tyrosine-phosphorylated proteins were visualized by separation on NuPAGE 3-8% Tris-Acetate gels (Invitrogen), blotted onto nitrocellulose, blocked with 3% Immunoblot Blocking Reagent (Upstate), then incubated with anti-phosphotyrosine antibody (4G10, Upstate). […] Co-immunoprecipitated proteins were detected with either mouse or rabbit TrueBlot HRP conjugated secondaries (eBioscience). • Antibody arrays. Cells were harvested as for immunoprecipitations above. Snap-frozen tumors were thawed in immunoprecipitation lysis buffer, homogenized by hand 50× with disposable 1.5 mL pestles, incubated 30 min 4° C. with inversion, homogenized 50×, then cleared by centrifugation at 10 k 10 min 4° C. Proteins were quantitated as above. RTK antibody arrays were purchased from R&D Systems (#ARY-001) and performed as recommended but with 2 mg protein lysate per array. • Soft agar colony formation.
# [5] = target: T2, PDGFRβ (Homo sapiens, UniProt P09619); experiment: Immunoblot of P-PDGFRβ in LN382 and LN18 cells; format: cell-based; details: 1 μM, 24 hours (FIG. 4F)
# T2 construct: endogenous in cells; host or cells: LN382 and LN18 glioma cells
# Description: DNA is labeled with Hoechst 33342.
# T1 sequence (P08581 25-1390): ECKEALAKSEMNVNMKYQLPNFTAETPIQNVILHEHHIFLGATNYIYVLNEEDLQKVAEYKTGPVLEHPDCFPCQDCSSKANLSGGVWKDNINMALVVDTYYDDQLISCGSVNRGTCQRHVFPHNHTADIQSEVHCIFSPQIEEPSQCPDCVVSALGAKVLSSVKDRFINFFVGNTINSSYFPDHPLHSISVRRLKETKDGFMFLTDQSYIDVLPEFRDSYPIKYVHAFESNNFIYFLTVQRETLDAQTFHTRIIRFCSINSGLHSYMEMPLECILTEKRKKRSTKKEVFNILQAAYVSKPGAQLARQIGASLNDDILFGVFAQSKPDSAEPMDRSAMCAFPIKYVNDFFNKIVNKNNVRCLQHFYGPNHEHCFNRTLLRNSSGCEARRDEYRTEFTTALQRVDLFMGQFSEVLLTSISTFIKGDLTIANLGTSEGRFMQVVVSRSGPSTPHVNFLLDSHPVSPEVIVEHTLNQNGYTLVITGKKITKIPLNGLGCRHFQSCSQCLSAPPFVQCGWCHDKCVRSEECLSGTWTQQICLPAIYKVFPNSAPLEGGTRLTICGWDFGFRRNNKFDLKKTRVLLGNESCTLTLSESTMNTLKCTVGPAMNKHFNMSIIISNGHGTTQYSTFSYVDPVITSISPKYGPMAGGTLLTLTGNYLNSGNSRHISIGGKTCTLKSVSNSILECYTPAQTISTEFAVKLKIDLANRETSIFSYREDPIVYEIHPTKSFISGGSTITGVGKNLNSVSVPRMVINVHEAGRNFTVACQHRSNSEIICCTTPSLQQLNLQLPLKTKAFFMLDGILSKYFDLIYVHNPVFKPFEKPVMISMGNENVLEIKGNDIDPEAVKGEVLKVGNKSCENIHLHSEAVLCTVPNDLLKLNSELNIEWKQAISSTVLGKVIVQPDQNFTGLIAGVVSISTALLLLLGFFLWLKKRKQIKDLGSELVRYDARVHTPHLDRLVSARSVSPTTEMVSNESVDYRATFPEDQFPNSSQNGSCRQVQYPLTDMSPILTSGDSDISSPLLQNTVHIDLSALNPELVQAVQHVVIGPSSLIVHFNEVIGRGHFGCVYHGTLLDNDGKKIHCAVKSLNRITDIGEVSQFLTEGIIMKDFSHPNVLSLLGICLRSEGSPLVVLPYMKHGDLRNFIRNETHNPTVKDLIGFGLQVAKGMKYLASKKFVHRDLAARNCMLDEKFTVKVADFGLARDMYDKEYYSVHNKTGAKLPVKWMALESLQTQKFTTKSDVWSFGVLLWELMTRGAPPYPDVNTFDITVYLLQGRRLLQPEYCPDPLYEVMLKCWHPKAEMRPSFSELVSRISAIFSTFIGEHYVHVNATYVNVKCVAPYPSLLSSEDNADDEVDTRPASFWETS
# T2 sequence (P09619 33-1106): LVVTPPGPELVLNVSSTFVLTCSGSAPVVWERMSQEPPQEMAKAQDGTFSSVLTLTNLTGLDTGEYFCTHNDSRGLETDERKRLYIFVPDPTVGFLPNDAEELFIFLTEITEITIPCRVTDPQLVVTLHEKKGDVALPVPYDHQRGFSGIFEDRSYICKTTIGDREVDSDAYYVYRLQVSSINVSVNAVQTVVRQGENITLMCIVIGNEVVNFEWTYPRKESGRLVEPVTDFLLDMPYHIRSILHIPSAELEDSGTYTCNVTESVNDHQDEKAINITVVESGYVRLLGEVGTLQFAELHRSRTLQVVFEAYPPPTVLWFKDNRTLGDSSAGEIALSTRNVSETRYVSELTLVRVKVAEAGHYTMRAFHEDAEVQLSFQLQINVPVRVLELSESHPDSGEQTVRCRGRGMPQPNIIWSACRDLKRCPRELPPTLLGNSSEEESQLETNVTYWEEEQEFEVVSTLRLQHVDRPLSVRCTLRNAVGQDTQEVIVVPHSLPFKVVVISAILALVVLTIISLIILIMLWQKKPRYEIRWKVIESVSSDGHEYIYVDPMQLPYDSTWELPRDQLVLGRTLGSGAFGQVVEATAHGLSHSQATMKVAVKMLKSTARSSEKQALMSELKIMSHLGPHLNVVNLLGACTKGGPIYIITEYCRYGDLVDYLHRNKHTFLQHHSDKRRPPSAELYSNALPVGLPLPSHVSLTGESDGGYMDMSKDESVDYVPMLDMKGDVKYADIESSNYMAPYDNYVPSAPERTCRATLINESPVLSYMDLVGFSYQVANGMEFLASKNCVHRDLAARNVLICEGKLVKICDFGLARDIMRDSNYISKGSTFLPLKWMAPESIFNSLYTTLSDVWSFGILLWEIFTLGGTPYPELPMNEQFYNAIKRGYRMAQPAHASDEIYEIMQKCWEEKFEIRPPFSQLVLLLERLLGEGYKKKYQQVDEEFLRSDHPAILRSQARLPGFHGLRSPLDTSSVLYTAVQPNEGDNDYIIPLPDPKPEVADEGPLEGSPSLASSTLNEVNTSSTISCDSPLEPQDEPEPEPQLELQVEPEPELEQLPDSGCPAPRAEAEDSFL
phosphorylation of MET [2],Compound,PI3K association with GAB1 and downstream activation of AKT and S6 [1],p-PDGFR [3],phosphorylation of intended target RTK (P-MET) [4],P-PDGFRβ [5]
decrease in phosphorylation of MET,"Cc1ccc(NC(=O)c2ccc(CN3CCN(C)CC3)cc2)cc1Nc1nccc(-c2cccnc2)n1 [Gleevec™, Imatinib mesylate]",did not significantly effect PI3K activation,,,
,Cc1[nH]c(/C=C2\C(=O)Nc3ccc(S(=O)(=O)N(C)c4cccc(Cl)c4)cc32)c(C)c1C(=O)N1CCN(C)CC1 [SU11274],no discernable effect,diminishes p-PDGFR,effectively blocked phosphorylation,decrease in P-PDGFRβ
